EC50 data for 6 molecules are collected here from patent publication US9067977B2, “Peptides derivatized with A-B-C-D- and their therapeutical use” (Novo Nordisk A/S, priority 2007, dated 2015).

The EC50 is the concentration giving half of the maximal effect. Read a low EC50 as higher potency in that assay.

The target of this data set is human serum albumin (HSA) (Homo sapiens, UniProt P02768). The experiment in a line: Albumin binding affinity, competition scintillation proximity assay. The settings on record: for EC50 at 20 h: human, pH 7.4. On the technique in general: Scintillation proximity formats need no separation of bound from free tracer.
Setting [1] is: biotinylated human serum albumin on streptavidin-SPA beads.

Starred links: 1 amine or outer side, 2 acyl side, 3 side chain; linkers in the order of their positions; H or OH if unused. Residues, ends and D or L forms follow the SMILES beside them. Groups on a side chain read outwards from the residue. *: point of attachment. X3 = O=C(O)CCCCCCCCCCCCCCCCCCC(=O)NC[C@H]1CC[C@H](C(=O)N[C@@H](CCC(=O)NCCOCCOCC(=O)NCCOCCOCC(=O)N[C@@H](CCCCN*)C(=O)O)C(=O)O)CC1; X2 = O=C(O)CCCCCCCCCCCCCCCCCCC(=O)NCC1CCC(C(=O)*)CC1; C20 diacid = O=C(O)CCCCCCCCCCCCCCCCCCC(=O)*; γGlu = O=C(O)[C@H](CCC(=O)[*:2])N[*:1]; Desaminohistidyl = O=C(CCc1c[nH]cn1)*; AEEA = NCCOCCOCC(=O)O; Inp = O=C(O)C1CCNCC1

Chain of human serum albumin (HSA) (P02768 25-609): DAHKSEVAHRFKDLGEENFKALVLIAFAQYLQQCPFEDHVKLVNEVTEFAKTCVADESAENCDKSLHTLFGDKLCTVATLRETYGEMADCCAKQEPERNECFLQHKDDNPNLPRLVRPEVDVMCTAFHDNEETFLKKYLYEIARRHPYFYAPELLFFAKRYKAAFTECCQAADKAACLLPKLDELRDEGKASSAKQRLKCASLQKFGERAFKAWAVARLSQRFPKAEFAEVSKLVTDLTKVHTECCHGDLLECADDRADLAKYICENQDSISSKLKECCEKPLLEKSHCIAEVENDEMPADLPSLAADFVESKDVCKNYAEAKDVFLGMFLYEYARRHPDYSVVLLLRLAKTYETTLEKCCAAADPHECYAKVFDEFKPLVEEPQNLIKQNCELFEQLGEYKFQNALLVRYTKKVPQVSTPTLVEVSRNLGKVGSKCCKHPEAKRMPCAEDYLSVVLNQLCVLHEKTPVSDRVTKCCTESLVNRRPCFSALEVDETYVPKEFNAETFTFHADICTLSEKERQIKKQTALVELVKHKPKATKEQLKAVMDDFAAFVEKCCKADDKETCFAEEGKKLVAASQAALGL
Description: Streptavidin-SPA beads (GE Healthcare RPNQ0009) were incubated with biotinylated HSA for 5 hours. The beads were washed with buffer to remove unbound HSA. […] After 20 hours of gentle rocking at room temperature the plates were centrifuged and counted on a TopCounter.

`CC[C@H](C)[C@H](NC(=O)[C@H](Cc1ccccc1)NC(=O)[C@H](CCC(=O)O)NC(=O)[C@H](CCCNC(=N)N)NC(=O)[C@H](C)NC(=O)[C@H](C)NC(=O)[C@H](CCC(N)=O)NC(=O)[C@H](CCC(=O)O)NC(=O)[C@H](CCC(=O)O)NC(=O)[C@H](CC(C)C)NC(=O)[C@H](Cc1ccc(O)cc1)NC(=O)[C@H](CO)NC(=O)[C@H](CO)NC(=O)[C@@H](NC(=O)[C@H](CC(=O)O)NC(=O)[C@H](CO)NC(=O)[C@@H](NC(=O)[C@H](Cc1ccccc1)NC(=O)[C@@H](NC(=O)CNC(=O)[C@H](CCC(=O)O)NC(=O)[C@H](C)NC(=O)CCc1c[nH]cn1)[C@@H](C)O)[C@@H](C)O)C(C)C)C(=O)N[C@@H](C)C(=O)N[C@@H](Cc1c[nH]c2ccccc12)C(=O)N[C@@H](CC(C)C)C(=O)N[C@H](C(=O)N[C@@H](CCCNC(=N)N)C(=O)NCC(=O)N[C@@H](CCCNC(=N)N)C(=O)NCCCC[C@H](NC(=O)COCCOCCNC(=O)COCCOCCNC(=O)CC[C@H](NC(=O)[C@H]1CC[C@H](CNC(=O)CCCCCCCCCCCCCCCCCCC(=O)O)CC1)C(=O)O)C(=O)O)C(C)C` [Example 53, N-alpha37-[2-(2-{2-[2-(2-{2-[(S)-4-Carboxy-4-({trans-4-[(19-carboxynonadecanoylamino)methyl]cyclohexanecarbonyl}amino)butyrylamino]ethoxy}ethoxy)acetylamino]ethoxy}ethoxy)acetyl][DesaminoHis7,Glu22,Arg26,Arg34,epsilon-Lys37]GLP-1-(7-37)] (Desaminohistidyl-AEGTFTSDVSSYLEEQAAREFIAWLVRGR-X3) returned an EC50 of 1 to 100 nM.

With `CC[C@H](C)[C@H](NC(=O)[C@H](Cc1ccccc1)NC(=O)[C@H](CCC(=O)O)NC(=O)[C@H](CCCNC(=N)N)NC(=O)[C@H](C)NC(=O)[C@H](C)NC(=O)[C@H](CCC(N)=O)NC(=O)[C@H](CCC(=O)O)NC(=O)[C@H](CCC(=O)O)NC(=O)[C@H](CC(C)C)NC(=O)[C@H](Cc1ccc(O)cc1)NC(=O)[C@H](CO)NC(=O)[C@H](CO)NC(=O)[C@@H](NC(=O)[C@H](CC(=O)O)NC(=O)[C@H](CO)NC(=O)[C@@H](NC(=O)[C@H](Cc1ccccc1)NC(=O)[C@@H](NC(=O)CNC(=O)[C@H](CCC(=O)O)NC(=O)[C@H](C)NC(=O)Cc1c[nH]cn1)[C@@H](C)O)[C@@H](C)O)C(C)C)C(=O)N[C@@H](C)C(=O)N[C@@H](Cc1c[nH]c2ccccc12)C(=O)N[C@@H](CC(C)C)C(=O)N[C@H](C(=O)N[C@@H](CCCNC(=N)N)C(=O)NCC(=O)N[C@@H](CCCNC(=N)N)C(=O)N[C@@H](CCCCNC(=O)COCCOCCNC(=O)COCCOCCNC(=O)CC[C@H](NC(=O)[C@H]1CC[C@H](CNC(=O)CCCCCCCCCCCCCCCCCCC(=O)O)CC1)C(=O)O)C(=O)O)C(C)C` [Example 54, N-alpha8-[2-(4-imidazolyl)acetyl] N-epsilon37-[2-(2-{2-[2-(2-{2-[(S)-4-Carboxy-4-({trans-4-[(19-carboxynonadecanoylamino)methyl]cyclohexanecarbonyl}amino)butyrylamino]ethoxy}ethoxy)acetylamino]ethoxy}ethoxy)acetyl][Glu22,Arg26,Arg34,Lys37]GLP-1-(8-37)], the EC50 at 20 h lay in the range of 150 to 300 nM.

As to `CC[C@H](C)[C@H](NC(=O)[C@H](Cc1ccccc1)NC(=O)[C@H](CCC(=O)O)NC(=O)[C@H](CCCNC(=N)N)NC(=O)[C@H](C)NC(=O)[C@H](C)NC(=O)[C@H](CCC(N)=O)NC(=O)[C@H](CCC(=O)O)NC(=O)[C@H](CCC(=O)O)NC(=O)[C@H](CC(C)C)NC(=O)[C@H](Cc1ccc(O)cc1)NC(=O)[C@H](CO)NC(=O)[C@H](CO)NC(=O)[C@@H](NC(=O)[C@H](CC(=O)O)NC(=O)[C@H](CO)NC(=O)[C@@H](NC(=O)[C@H](Cc1ccccc1)NC(=O)[C@@H](NC(=O)CNC(=O)[C@H](CCC(=O)O)NC(=O)[C@H](C)NC(=O)CCc1c[nH]cn1)[C@@H](C)O)[C@@H](C)O)C(C)C)C(=O)N[C@@H](C)C(=O)N[C@@H](Cc1c[nH]c2ccccc12)C(=O)N[C@@H](CC(C)C)C(=O)N[C@H](C(=O)N[C@@H](CCCNC(=N)N)C(=O)NCC(=O)N[C@@H](CCCNC(=N)N)C(=O)NCC(=O)N[C@@H](CCCCNC(=O)COCCOCCNC(=O)CC[C@H](NC(=O)C1CCN(C(=O)CCCCCCCCCCCCCCCCCCC(=O)O)CC1)C(=O)O)C(=O)O)C(C)C` [Example 55, [DesaminoHis7,Glu22,Arg26,34]-GLP-1 (7-37)-Lys-(2-{2-[2-((S)-4-carboxy-4-{[1-(19-carboxynonadecanoyl)piperidine-4-carbonyl]amino}butyrylamino)ethoxy]ethoxy}acetyl) peptide] (Desaminohistidyl-AEGTFTSDVSSYLEEQAAREFIAWLVRGRGK([AEEA-γGlu-Inp-C20 diacid])-OH), under setting [1], the concentration for a half-maximal effect (EC50) at 20 h is 150 to 300 nM. As to `CC[C@H](C)[C@H](NC(=O)[C@H](Cc1ccccc1)NC(=O)[C@H](CCC(=O)O)NC(=O)[C@H](CCCNC(=N)N)NC(=O)[C@H](C)NC(=O)[C@H](C)NC(=O)[C@H](CCC(N)=O)NC(=O)[C@H](CCC(=O)O)NC(=O)[C@H](CCC(=O)O)NC(=O)[C@H](CC(C)C)NC(=O)[C@H](Cc1ccc(O)cc1)NC(=O)[C@H](CO)NC(=O)[C@H](CO)NC(=O)[C@@H](NC(=O)[C@H](CC(=O)O)NC(=O)[C@H](CO)NC(=O)[C@@H](NC(=O)[C@H](Cc1ccccc1)NC(=O)[C@@H](NC(=O)CNC(=O)[C@H](CCC(=O)O)NC(=O)[C@H](C)NC(=O)CCc1c[nH]cn1)[C@@H](C)O)[C@@H](C)O)C(C)C)C(=O)N[C@@H](C)C(=O)N[C@@H](Cc1c[nH]c2ccccc12)C(=O)N[C@@H](CC(C)C)C(=O)N[C@H](C(=O)N[C@@H](CCCNC(=N)N)C(=O)NCC(=O)N[C@@H](CCCNC(=N)N)C(=O)NCC(=O)N[C@@H](CCCCNC(=O)COCCOCCNC(=O)COCCOCCNC(=O)CC[C@H](NC(=O)C1CCC(CNC(=O)CCCCCCCCCCCCCCCCCCC(=O)O)CC1)C(=O)O)C(=O)O)C(C)C` (stereo partly drawn) [Example 56, [DesaminoHis7,Glu22,Arg26,34]-GLP-1 (7-37)-Lys-[2-(2-{2-[2-(2-{2-[4-Carboxy-4-({4-[(19-carboxynonadecanoylamino)methyl]cyclohexanecarbonyl}amino)butyrylamino]ethoxy}ethoxy)acetylamino]ethoxy}ethoxy)acetyl] peptide] (Desaminohistidyl-AEGTFTSDVSSYLEEQAAREFIAWLVRGRGK([AEEA-AEEA-γGlu-X2])-OH), the EC50 lay in the range of 150 to 300 nM. Molecule `CC[C@H](C)[C@H](NC(=O)[C@H](Cc1ccccc1)NC(=O)[C@H](CCC(=O)O)NC(=O)[C@H](CCCNC(=N)N)NC(=O)[C@H](C)NC(=O)[C@H](C)NC(=O)[C@H](CCC(N)=O)NC(=O)[C@H](CCC(=O)O)NC(=O)[C@H](CCC(=O)O)NC(=O)[C@H](CC(C)C)NC(=O)[C@H](Cc1ccc(O)cc1)NC(=O)[C@H](CO)NC(=O)[C@H](CO)NC(=O)[C@@H](NC(=O)[C@H](CC(=O)O)NC(=O)[C@H](CO)NC(=O)[C@@H](NC(=O)[C@H](Cc1ccccc1)NC(=O)[C@@H](NC(=O)CNC(=O)[C@H](CCC(=O)O)NC(=O)[C@H](C)NC(=O)CCc1c[nH]cn1)[C@@H](C)O)[C@@H](C)O)C(C)C)C(=O)N[C@@H](C)C(=O)N[C@@H](Cc1c[nH]c2ccccc12)C(=O)N[C@@H](CC(C)C)C(=O)N[C@H](C(=O)N[C@@H](CCCNC(=N)N)C(=O)NCC(=O)N[C@@H](CCCNC(=N)N)C(=O)NCC(=O)N[C@@H](CCCCNC(=O)CC[C@H](NC(=O)COCCOCCNC(=O)CC[C@H](NC(=O)C1CCN(C(=O)CCCCCCCCCCCCCCCCCCC(=O)O)CC1)C(=O)O)C(=O)O)C(=O)O)C(C)C` [Example 57, [DesaminoHis7,Glu22,Arg26,34]-GLP-1 (7-37)-Lys((S)-4-carboxy-4-(2-{2-[2-((S)-4-carboxy-4-{[1-(19-carboxynonadecanoyl)piperidine-4-carbonyl]amino}butyrylamino)ethoxy]ethoxy}acetylamino)butyryl) peptide] (Desaminohistidyl-AEGTFTSDVSSYLEEQAAREFIAWLVRGRGK([γGlu-AEEA-γGlu-Inp-C20 diacid])-OH) registered an EC50 at 20 h under setting [1] of 100 to 150 nM. Same read-out and setting: the result for `CC[C@H](C)[C@H](NC(=O)[C@H](Cc1ccccc1)NC(=O)[C@H](CCC(=O)O)NC(=O)[C@H](CCCNC(=N)N)NC(=O)[C@H](C)NC(=O)[C@H](C)NC(=O)[C@H](CCC(N)=O)NC(=O)[C@H](CCC(=O)O)NC(=O)[C@H](CCC(=O)O)NC(=O)[C@H](CC(C)C)NC(=O)[C@H](Cc1ccc(O)cc1)NC(=O)[C@H](CO)NC(=O)[C@H](CO)NC(=O)[C@@H](NC(=O)[C@H](CC(=O)O)NC(=O)[C@H](CO)NC(=O)[C@@H](NC(=O)[C@H](Cc1ccccc1)NC(=O)[C@@H](NC(=O)CNC(=O)[C@H](CCC(=O)O)NC(=O)[C@H](C)NC(=O)CCc1c[nH]cn1)[C@@H](C)O)[C@@H](C)O)C(C)C)C(=O)N[C@@H](C)C(=O)N[C@@H](Cc1c[nH]c2ccccc12)C(=O)N[C@@H](CC(C)C)C(=O)N[C@H](C(=O)N[C@@H](CCCNC(=N)N)C(=O)NCC(=O)N[C@@H](CCCNC(=N)N)C(=O)NCC(=O)N[C@@H](CCCCNC(=O)COCCOCCNC(=O)CC[C@H](NC(=O)COCCOCCNC(=O)CC[C@H](NC(=O)C1CCN(C(=O)CCCCCCCCCCCCCCCCCCC(=O)O)CC1)C(=O)O)C(=O)O)C(=O)O)C(C)C` [Example 58, [DesaminoHis7,Glu22,Arg26,34]-GLP-1 (7-37)-Lys-(2-(2-{2-[(S)-4-carboxy-4-(2-{2-[2-((S)-4-carboxy-4-{[1-(19-carboxynonadecanoyl)piperidine-4-carbonyl]amino}butyrylamino)ethoxy]ethoxy}acetylamino)butyrylamino]ethoxy}ethoxy)acetyl) peptide] (Desaminohistidyl-AEGTFTSDVSSYLEEQAAREFIAWLVRGRGK([AEEA-γGlu-AEEA-γGlu-Inp-C20 diacid])-OH) reads 100 to 150 nM.
